Key:
c-kit mutant D816V = molecular target: T1, c-kit mutant D816V (Homo sapiens, UniProt P10721, D816V/DEL694-753); test: c-Kit mutant D816V biochemical assay, AlphaScreen; details: c-kit D816V biochemical inhibitory activity; read-out: Biochemical activity (IC50 μM) Kit D816V
T1 construct: residues 551-934, kinase insertion domain residues 694-753 deleted; 6x-histidine (N); made in house; host or cells: E. coli Arctic Express (DE3) RIL (Stratagene)
Outline: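 Eight-point, threefold compound series incubated 30 min at room temperature with E. coli-produced D816V kinase, 10 μM ATP, Mg2+/Mn2+ HEPES buffer pH 7.2 and 5% DMSO. After EDTA stop, streptavidin and anti-phosphotyrosine (PY20) AlphaScreen beads gave the read-out, and IC50 was fitted from the concentration–signal curve.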

c-kit kinase = molecular target: T2, c-kit kinase (Homo sapiens, UniProt P10721); test: c-Kit biochemical assay, AlphaScreen, 10 μM ATP; details: c-kit biochemical inhibitory activity; read-out: Biochemical activity (IC50 μM) Kit
T2 construct: The c-kit (or kinase domain thereof) is an active kinase in AlphaScreen; poly-Histidine tag (in-house protein only) (cleaved yes); host or cells: E. coli BL21(DE3)RIL, co-expressed with PTP1B
T2 sequence (P10721 26-976): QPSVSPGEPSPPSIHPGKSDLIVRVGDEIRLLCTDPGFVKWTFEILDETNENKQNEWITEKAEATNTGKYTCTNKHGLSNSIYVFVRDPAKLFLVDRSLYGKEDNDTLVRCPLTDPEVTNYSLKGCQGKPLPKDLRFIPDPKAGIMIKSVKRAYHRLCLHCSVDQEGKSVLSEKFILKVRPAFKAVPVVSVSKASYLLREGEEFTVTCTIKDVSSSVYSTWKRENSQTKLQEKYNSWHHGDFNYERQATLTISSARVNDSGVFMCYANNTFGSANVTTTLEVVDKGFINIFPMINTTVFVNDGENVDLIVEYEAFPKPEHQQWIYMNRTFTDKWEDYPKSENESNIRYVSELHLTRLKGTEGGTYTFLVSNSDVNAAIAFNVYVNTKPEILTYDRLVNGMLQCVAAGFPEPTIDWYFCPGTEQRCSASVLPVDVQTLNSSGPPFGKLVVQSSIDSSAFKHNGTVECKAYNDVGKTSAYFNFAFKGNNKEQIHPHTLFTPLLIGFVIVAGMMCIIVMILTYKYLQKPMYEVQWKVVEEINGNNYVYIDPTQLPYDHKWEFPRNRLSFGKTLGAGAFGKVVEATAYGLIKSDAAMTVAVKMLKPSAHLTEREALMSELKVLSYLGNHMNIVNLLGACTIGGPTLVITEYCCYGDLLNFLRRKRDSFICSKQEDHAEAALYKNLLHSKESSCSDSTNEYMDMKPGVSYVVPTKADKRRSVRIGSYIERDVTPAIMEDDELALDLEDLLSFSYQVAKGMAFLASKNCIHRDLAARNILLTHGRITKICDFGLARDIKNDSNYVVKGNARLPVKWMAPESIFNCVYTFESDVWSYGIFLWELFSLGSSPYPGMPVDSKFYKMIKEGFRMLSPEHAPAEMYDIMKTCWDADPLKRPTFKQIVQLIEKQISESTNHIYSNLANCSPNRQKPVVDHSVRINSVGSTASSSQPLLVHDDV
Outline: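 His-tagged c-Kit expressed in E. coli with co-expressed PTP1B (dephosphorylated), tag removed; 0.1 ng per reaction with biotinylated-peptide substrate in 50 mM HEPES pH 7.2, 5 mM MgCl2, 5 mM MnCl2, 5% DMSO, 10 μM ATP, 1 h at room temperature. Phosphorylation detected by AlphaScreen (streptavidin donor, PY20 acceptor beads); IC50 from 8-point 1:3 dilution series.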

[1] = tested on: cells with activating c-kit mutations in the catalytic region; details: Ma et al., 2002; cited from earlier work
D816V KIT mutation = D816V KIT mutation (Homo sapiens, UniProt P10721, D816V); details: Frost et al., 2002; cited from earlier work
D816V KIT mutation, sequence (P10721 26-976 D816V): as the sequence (P10721 26-976) above, with D791V counted along it

T1 sequence (P10721 with tags, fused parts or gaps DEL694-753/D816V): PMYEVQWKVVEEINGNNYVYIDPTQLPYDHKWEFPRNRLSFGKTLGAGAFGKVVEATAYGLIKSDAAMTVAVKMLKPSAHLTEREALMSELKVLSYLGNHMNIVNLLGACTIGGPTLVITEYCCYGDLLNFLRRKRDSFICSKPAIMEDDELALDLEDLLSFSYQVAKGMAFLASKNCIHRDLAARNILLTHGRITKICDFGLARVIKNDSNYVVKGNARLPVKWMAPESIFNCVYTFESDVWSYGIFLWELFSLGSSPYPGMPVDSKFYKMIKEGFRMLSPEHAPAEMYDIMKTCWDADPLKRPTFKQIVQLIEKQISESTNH

Which results are given for `Cc1cc2c(C3=CCC(NS(=O)(=O)c4ccc(Cl)cc4)CC3)ncnc2[nH]1` (stereo not drawn) [P-0729, 4-chloro-N-[4-(6-methyl-7H-pyrrolo[2,3-d]pyrimidin-4-yl)cyclohex-3-en-1-yl]benzenesulfonamide]?
IC50 (c-kit mutant D816V): 0.0001 to 1 µM; IC50 (c-kit kinase): 0.0001 to 1 µM

With `CCc1ccc(S(=O)(=O)NC2CCN(c3ncnc4[nH]c(C)cc34)CC2)s1` [P-0730, 5-ethyl-N-[1-(6-methyl-7H-pyrrolo[2,3-d]pyrimidin-4-yl)-4-piperidyl]thiophene-2-sulfonamide] as the compound, how does the IC50 (c-kit mutant D816V) read?
The IC50 was 0.0001 to 1 µM.

What about the IC50 (c-kit kinase) of the same compound?
Its IC50 is 0.0001 to 1 µM.

Which “inhibition of cells with c-kit mutations in the catalytic region” value [1] does the source give for `Cc1ccc(NC(=O)c2ccc(CN3CCN(C)CC3)cc2)cc1Nc1nccc(-c2cccnc2)n1` [STI571] here?
Its value is “did not inhibit”.

With `Cc1ccc(NC(=O)c2ccc(CN3CCN(C)CC3)cc2)cc1Nc1nccc(-c2cccnc2)n1` [imatinib] as the compound, how does the “sensitivity of D816V KIT mutation” value (D816V KIT mutation) read?
Its value is “resistant”.

From US10227357B2, “Compounds and methods for kinase modulation, and indications therefor” (Plexxikon Inc., priority 2012, dated 2019)
